The target in the test is T1, Menin [2-610] (UniProt O00255).
T1 construct: 2-610
T1 sequence (O00255 whole entry): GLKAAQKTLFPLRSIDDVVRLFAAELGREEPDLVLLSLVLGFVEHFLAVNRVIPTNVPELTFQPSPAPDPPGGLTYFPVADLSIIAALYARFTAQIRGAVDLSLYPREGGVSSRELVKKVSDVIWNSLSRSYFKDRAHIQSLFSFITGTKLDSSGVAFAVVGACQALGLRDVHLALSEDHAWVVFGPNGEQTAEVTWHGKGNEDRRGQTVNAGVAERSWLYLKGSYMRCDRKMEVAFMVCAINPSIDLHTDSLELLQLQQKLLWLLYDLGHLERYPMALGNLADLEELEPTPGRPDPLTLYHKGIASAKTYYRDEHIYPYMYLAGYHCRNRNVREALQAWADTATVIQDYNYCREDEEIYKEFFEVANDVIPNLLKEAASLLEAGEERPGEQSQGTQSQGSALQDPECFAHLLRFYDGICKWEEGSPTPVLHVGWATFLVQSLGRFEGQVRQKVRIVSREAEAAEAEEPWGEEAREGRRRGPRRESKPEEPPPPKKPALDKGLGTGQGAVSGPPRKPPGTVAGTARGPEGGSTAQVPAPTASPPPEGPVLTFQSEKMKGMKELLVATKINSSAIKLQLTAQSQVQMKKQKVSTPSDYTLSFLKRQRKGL
In words: Fluorescence Polarization Assay. The method, then: 4 μL of 5× test compound was added to each reaction well of the 384-well plate, and the corresponding volume of 10% DMSO was added to the control wells. Except the control wells, 8 μL of Menin protein reaction solution was added to each well. The reaction solution was incubated at room temperature for 30 minutes, and then 8 μL of MLL polypeptide reaction solution was added to each well. The final concentrations of DMSO in the test compound wells and control wells were all 2%. The 384-well plate was sealed and incubated at room temperature for 30 minutes in the dark.
(In fluorescence polarisation assays a small probe gives low polarisation when free and higher when bound to something large.)

Take `CCNC(=O)N1CCC(CN2CCC3(CC2)CN(c2ncnnc2Oc2ccc(F)cc2C(=O)N(CC)C(C)C)C3)CC1` [US20260055108, Compound 28]: the half-maximal inhibitory concentration (IC50) amounted to 2.2 nM.

As a reminder, the IC50 is the concentration that gives 50% inhibition. Read a high IC50 as a need for much substance.

Source of the values: BindingDB's records for patent US20260055108 (Hutchmed, 2026).
